The data set can be described thus: Body weight change / toxicity in L1210-bearing mice. The settings on record: for Av. Wt. Change %: L1210-bearing mice. The class given is in vivo, mice (CD2F1). As to the method:
Leukemia L1210 cells were obtained from the Frederick Cancer Research Facility, Division of Cancer Treatment Tumor Repository of the National Cancer Institute, and were maintained by serial passage in tissue culture. Every 8 weeks, tumor cells were injected intraperitoneally into five donor CD2 F1 mice 8- to 10- weeks of age and were allowed to grow for 7 days. The peritoneal fluid was withdrawn and the suspension was centrifuged for 5 min at 1600 g. The supernatant was decanted and 10^5 cells/mL were seeded into 10 mL of RPMI 1640 medium supplemented with 10% fetal bovine serum and 1% L-glutamine, and once again maintained in culture. To assay for antineoplastic activity, 0.1 mL of the cell suspension containing 10^5 L1210 leukemia cells was injected ip into each recipient mouse. Test compounds were administered over a wide range of dosage levels, beginning 24 h after tumor implantation, and continued once daily for 6 consecutive days. All drugs were administered ip as a solution in 100% dimethylsulfoxide (DMSO), in a volume not exceeding 0.025 mL. […] Mice were weighed during the course of the experiments, and the percentage change in body weight from onset to termination of therapy was used as an indication of drug toxicity. Determination of the sensitivity of neoplasms to these agents was based upon the prolongation of survival time afforded by the drug treatments.
^a Administered ip once daily for six consecutive days, beginning 24 hours after tumor implantation, with 5-10 mice being used per group. ^b Average percent change in body weight from onset to termination of therapy. ^c % T/C=average survival time of treated/control mice×100; cures (>60-day survivors) are listed separately and are not included in this calculation.

From patent publication US5637619A, “Antitumor 2-aminocarbonyl-1, 2-bis(methylsulfonyl)-1-(substituted)hydrazines” (Yale University, priority 1995, dated 1997) come the findings set out here.

On to `CS(=O)(=O)N(CCCl)N(C(=O)NCCCl)S(C)(=O)=O` [Compound III, 1,2-bis(methylsulfonyl)-1-(2-chloroethyl)-2-(2-chloroethyl)aminocarbonylhydrazine], for which the “Av. Wt. Change %” value by setting is: (10 mg/kg ip once daily × 6) -4.7%; (15 mg/kg ip once daily × 6) -4.0%; (20 mg/kg ip once daily × 6) -10.4%. The “loss in body weight” value (20 mg/kg × 6) worked out at 10.4%. Besides, the “toxicity (in words)” value (20 mg/kg × 6) was “somewhat toxic”.
